Measurements as given in patent US5977133A, “Pyridone antibiotic with improved safety profile” (priority 1998, dated 1999).
In brackets after ≈: the same amount, converted by molar mass.

Columns and labels:
Type in all cases: cell-based
[1] = system: P. aeruginosa (CiproR); experiment: In vitro MIC, agar dilution; conditions: Pseudomonas aeruginosa
[2] = system: H. pylori; experiment: In vitro MIC, agar dilution; conditions: Helicobacter pylori
[3] = system: S. aureus (CiproS); experiment: In vitro MIC, agar dilution; conditions: Staphylococcus aureus
[4] = system: Shigella spp.; experiment: microbe, parasite or virus in culture; conditions: read-out: MIC Range
[5] = system: E. coli; experiment: In vitro MIC, agar dilution; conditions: Escherichia coli, 25 isolates
Procedure, shortened: (§1)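 Agar dilution plates were inoculated with ~10^4 CFU per spot by replicator, using 1:100 dilutions (1:10 for slow growers) and incubated at 35–37 °C for 20–24 h. MIC is the lowest concentration giving no growth, where slight haze or sparse colonies count as none, judged against a compound-free BHI agar control.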

[6] = system: Salmonella spp.; experiment: In vitro MIC, agar dilution; conditions: 23 isolates
Procedure, shortened: as §1

[7] = system: B. fragilis; experiment: In vitro MIC, agar dilution; conditions: Bacteroides fragilis
[8] = system: E. faecium (VanS); experiment: In vitro MIC, agar dilution; conditions: Enterococcus faecium
[9] = system: S. pneumoniae (CiproR); experiment: In vitro MIC, agar dilution; conditions: Streptococcus pneumoniae; S. pneumoniae (CiproR), 3 isolates; read-out: MIC Range
[10] = system: Klebsiella spp.; experiment: In vitro MIC, agar dilution
[11] = system: Enterococcus spp. (VanR); experiment: In vitro MIC, agar dilution; conditions: Enterococcus spp. (VanR), 21 isolates
[12] = system: C. perfringens; experiment: microbe, parasite or virus in culture; conditions: Clostridium perfringens
[13] = system: M. avium; experiment: In vitro MIC, agar dilution; conditions: Mycobacterium avium
[14] = system: E. faecalis (VanS); experiment: In vitro MIC, agar dilution; conditions: Enterococcus faecalis
[15] = system: M. pneumoniae; experiment: In vitro MIC, agar dilution; conditions: Mycoplasmoides pneumoniae; M. pneumoniae, 7 isolates; read-out: MIC Range
[16] = system: S. pyogenes; experiment: In vitro MIC, agar dilution; conditions: Streptococcus pyogenes
[17] = system: E. faecium (CiproR); experiment: In vitro MIC, agar dilution; conditions: Enterococcus faecium; E. faecium (CiproR), 2 isolates; read-out: MIC Range
[18] = system: S. pneumoniae (PenR); experiment: In vitro MIC, agar dilution; conditions: Streptococcus pneumoniae
[19] = system: E. faecium (CiproS); experiment: In vitro MIC, agar dilution; conditions: Enterococcus faecium, E. faecium (CiproS), 16 isolates
[20] = system: P. mirabilis; experiment: In vitro MIC, agar dilution; conditions: Proteus mirabilis
[21] = system: C. freundii; experiment: In vitro MIC, agar dilution; conditions: Citrobacter freundii
[22] = system: Legionella spp.; experiment: microbe, parasite or virus in culture; conditions: Legionella
[23] = system: S. aureus (CiproR); experiment: In vitro MIC, agar dilution; conditions: Staphylococcus aureus, S. aureus (CiproR), 25 isolates
[24] = system: H. influenzae; experiment: In vitro MIC, agar dilution; conditions: Haemophilus influenzae, H. influenzae, 18 isolates
[25] = system: S. epidermidis (CiproR); experiment: In vitro MIC, agar dilution; conditions: Staphylococcus epidermidis, S. epidermidis (CiproR), 11 isolates
[26] = system: Providencia spp.; experiment: In vitro MIC, agar dilution
[27] = system: S. pneumoniae (PenS); experiment: In vitro MIC, agar dilution; conditions: Streptococcus pneumoniae
[28] = system: C. difficile; experiment: In vitro MIC, agar dilution; conditions: Clostridioides difficile
[29] = system: S. epidermidis (CiproS); experiment: In vitro MIC, agar dilution; conditions: Staphylococcus epidermidis

With NC1CCN(c2c(F)cc3c(=O)c(C(=O)O)cn(C4CC4)c3c2Cl)C1 (stereo not drawn) [Clinafloxacin, clinafloxacin] the MIC ([1]; read-out: MIC Range) was 2 to 32 µg/mL (≈ 5.47 to 87.5 µM), the MIC50 ([1]; P. aeruginosa (CiproR), 20 isolates, read-out: MIC50) was 4 µg/mL (≈ 10.9 µM) and the MIC90 ([1]; P. aeruginosa (CiproR), 20 isolates, read-out: MIC90) was 8 µg/mL (≈ 21.9 µM). It also gave an MIC90 [2] of 0.03 µg/mL (≈ 0.082 µM), an MIC50 ([2]; H. pylori, 17 isolates, read-out: MIC50) of 0.015 µg/mL (≈ 0.041 µM) and an MIC ([2]; H. pylori, 17 isolates, read-out: MIC Range) of 0.008 to 0.03 µg/mL (≈ 0.0219 to 0.082 µM). It also gave an MIC50 [3] of 0.03 µg/mL (≈ 0.082 µM), an MIC90 [3] of 0.03 µg/mL (≈ 0.082 µM) and an MIC ([3]; S. aureus (CiproS), 21 isolates, read-out: MIC Range) of 0.015 to 0.03 µg/mL (≈ 0.041 to 0.082 µM). The MIC [4] was 0.008 to 0.015 µg/mL (≈ 0.0219 to 0.041 µM), the MIC [5] was 0.008 to 0.03 µg/mL (≈ 0.0219 to 0.082 µM) and the MIC50 ([5]; read-out: MIC50) was 0.015 µg/mL (≈ 0.041 µM). For the same molecule, the MIC90 ([5]; read-out: MIC90) was 0.015 µg/mL (≈ 0.041 µM), the MIC [6] was 0.004 to 0.25 µg/mL (≈ 0.0109 to 0.683 µM) and the MIC50 ([6]; read-out: MIC50) was 0.015 µg/mL (≈ 0.041 µM). The MIC90 ([6]; read-out: MIC90) was 0.03 µg/mL (≈ 0.082 µM), the MIC90 [7] was 0.5 µg/mL (≈ 1.37 µM) and the MIC ([7]; read-out: MIC Range) was 0.06 to 0.5 µg/mL (≈ 0.164 to 1.37 µM). It also gave an MIC50 ([7]; B. fragilis, 18 isolates, read-out: MIC50) of 0.25 µg/mL (≈ 0.683 µM), an MIC ([8]; read-out: MIC Range) of 0.12 to 1 µg/mL (≈ 0.328 to 2.73 µM) and an MIC50 ([8]; E. faecium (VanS), 11 isolates, read-out: MIC50) of 0.5 µg/mL (≈ 1.37 µM). For the same molecule, the MIC90 ([8]; E. faecium (VanS), 11 isolates, read-out: MIC90) was 1 µg/mL (≈ 2.73 µM), the MIC [9] was 0.12 µg/mL (≈ 0.328 µM) and the MIC50 ([10]; Klebsiella) was 0.03 µg/mL (≈ 0.082 µM). For the same molecule, the MIC90 ([10]; Klebsiella) was 0.03 µg/mL (≈ 0.082 µM), the MIC ([10]; Klebsiella spp., 29 isolates, read-out: MIC Range) was 0.004 to 0.12 µg/mL (≈ 0.0109 to 0.328 µM) and the MIC50 ([11]; read-out: MIC50) was 1 µg/mL (≈ 2.73 µM). The MIC90 ([11]; read-out: MIC90) was 2 µg/mL (≈ 5.47 µM), the MIC ([11]; read-out: MIC Range) was 0.12 to 8 µg/mL (≈ 0.328 to 21.9 µM) and the MIC50 [12] was 0.12 µg/mL (≈ 0.328 µM). For the same molecule, the MIC90 ([12]; C. perfringens, 13 isolates) was 0.12 µg/mL (≈ 0.328 µM), the MIC ([12]; read-out: MIC Range) was 0.06 to 0.12 µg/mL (≈ 0.164 to 0.328 µM) and the MIC90 [13] was 32 µg/mL (≈ 87.5 µM). For the same molecule, the MIC50 ([13]; M. avium, 20 isolates, read-out: MIC50) was 16 µg/mL (≈ 43.7 µM), the MIC90 [14] was 0.25 µg/mL (≈ 0.683 µM) and the MIC ([14]; read-out: MIC Range) was 0.12 to 0.25 µg/mL (≈ 0.328 to 0.683 µM). The MIC50 ([14]; E. faecalis (VanS), 17 isolates, read-out: MIC50) was 0.25 µg/mL (≈ 0.683 µM), the MIC [15] was 0.015 to 0.03 µg/mL (≈ 0.041 to 0.082 µM) and the MIC90 [16] was 0.06 µg/mL (≈ 0.164 µM). For the same molecule, the MIC ([16]; read-out: MIC Range) was 0.06 to 0.12 µg/mL (≈ 0.164 to 0.328 µM), the MIC50 ([16]; S. pyogenes, 21 isolates, read-out: MIC50) was 0.06 µg/mL (≈ 0.164 µM) and the MIC [17] was 2 to 8 µg/mL (≈ 5.47 to 21.9 µM). The MIC90 [18] was 0.25 µg/mL (≈ 0.683 µM), the MIC ([18]; read-out: MIC Range) was 0.06 to 0.25 µg/mL (≈ 0.164 to 0.683 µM) and the MIC50 ([18]; S. pneumoniae (PenR), 25 isolates, read-out: MIC50) was 0.12 µg/mL (≈ 0.328 µM). The MIC50 ([19]; read-out: MIC50) was 1 µg/mL (≈ 2.73 µM), the MIC90 ([19]; read-out: MIC90) was 2 µg/mL (≈ 5.47 µM) and the MIC ([19]; read-out: MIC Range) was 0.5 to 8 µg/mL (≈ 1.37 to 21.9 µM). For the same molecule, the MIC50 [20] was 0.03 µg/mL (≈ 0.082 µM), the MIC90 [20] was 0.06 µg/mL (≈ 0.164 µM) and the MIC ([20]; P. mirabilis, 20 isolates, read-out: MIC Range) was 0.03 to 0.06 µg/mL (≈ 0.082 to 0.164 µM). For the same molecule, the MIC50 [21] was 0.03 µg/mL (≈ 0.082 µM), the MIC90 [21] was 0.12 µg/mL (≈ 0.328 µM) and the MIC ([21]; read-out: MIC Range) was 0.015 to 0.12 µg/mL (≈ 0.041 to 0.328 µM). The MIC50 [22] was 0.06 µg/mL (≈ 0.164 µM), the MIC90 [22] was 0.12 µg/mL (≈ 0.328 µM) and the MIC ([22]; read-out: MIC Range) was 0.03 to 0.12 µg/mL (≈ 0.082 to 0.328 µM). The MIC50 ([23]; read-out: MIC50) was 0.5 µg/mL (≈ 1.37 µM), the MIC90 ([23]; read-out: MIC90) was 1 µg/mL (≈ 2.73 µM) and the MIC ([23]; read-out: MIC Range) was 0.25 to 2 µg/mL (≈ 0.683 to 5.47 µM). It also gave an MIC50 ([24]; read-out: MIC50) of 0.008 µg/mL (≈ 0.0219 µM), an MIC90 ([24]; read-out: MIC90) of 0.008 µg/mL (≈ 0.0219 µM) and an MIC ([24]; read-out: MIC Range) of 0.004 to 0.008 µg/mL (≈ 0.0109 to 0.0219 µM). The MIC50 ([25]; read-out: MIC50) was 0.5 µg/mL (≈ 1.37 µM), the MIC90 ([25]; read-out: MIC90) was 1 µg/mL (≈ 2.73 µM) and the MIC ([25]; read-out: MIC Range) was 0.25 to 2 µg/mL (≈ 0.683 to 5.47 µM). The MIC90 ([26]; Providencia) was 0.03 µg/mL (≈ 0.082 µM), the MIC50 ([26]; Providencia spp., 28 isolates, read-out: MIC50) was 0.015 µg/mL (≈ 0.041 µM) and the MIC ([26]; Providencia spp., 28 isolates, read-out: MIC Range) was 0.008 to 0.12 µg/mL (≈ 0.0219 to 0.328 µM). The MIC90 [27] was 0.12 µg/mL (≈ 0.328 µM), the MIC50 ([27]; S. pneumoniae (PenS), 20 isolates, read-out: MIC50) was 0.06 µg/mL (≈ 0.164 µM) and the MIC ([27]; S. pneumoniae (PenS), 20 isolates, read-out: MIC Range) was 0.03 to 0.12 µg/mL (≈ 0.082 to 0.328 µM). It also gave an MIC90 [28] of 0.25 µg/mL (≈ 0.683 µM), an MIC ([28]; read-out: MIC Range) of 0.12 to 0.25 µg/mL (≈ 0.328 to 0.683 µM) and an MIC50 ([28]; C. difficile, 10 isolates, read-out: MIC50) of 0.25 µg/mL (≈ 0.683 µM). The MIC50 [29] was 0.03 µg/mL (≈ 0.082 µM), the MIC90 [29] was 0.03 µg/mL (≈ 0.082 µM) and the MIC ([29]; S. epidermidis (CiproS), 23 isolates, read-out: MIC Range) was 0.015 to 0.06 µg/mL (≈ 0.041 to 0.164 µM).
